These are literature values, as cited in patent US20200188476A1, “ANTI-MICROBIAL AGENT-POLYMER CONJUGATES AND METHODS OF USE THEREOF” (The Regents of the University of California, priority 2017, published 2020).

Series [1] deals with bacteria.
The test system of series [2] is bacteria. The source holds these as a separate data set.
For series [3] the following is noted: human, in vivo.

octanoyl polymyxin B heptapeptide: the “concentration that inhibits the growth of bacteria” value in the series on bacteria [1] was 128 µg/mL.
“Polymyxin B nonapeptide [nonapeptide of polymyxin B]”: the “reduction of toxicity in cell culture relative to polymyxin B” value in the series with cell culture is “about 100 fold”. Further, the “reduction of antibacterial activity relative to polymyxin B” value in the series with bacteria [2] is 2-64 fold.
colistin: in series [3], the “overall incidence of neurotoxicity or neuropathy” value is reported as 7.3%.
As for octanoyl polymyxin B nonapeptide, in the series on bacteria [1], the “inhibition of bacterial growth” value is “very potent agents to inhibit bacterial growth”.
Consider octanoyl polymyxin B octapeptide, for which the “inhibition of bacterial growth” value in the series with bacteria [1] is recorded as “very potent agents to inhibit bacterial growth”.
